Experimental data: patent US12077503B2, “Substituted cyclic amides and their use as herbicides” (FMC CORPORATION, priority 2015, dated 2024)

Experiments:
Format in all cases: in vivo
corn (Zea mays) [1] = test: Test G Pre-Emergence Protocol; conditions: Zea mays, pre-emergence, 312 h, evaluated after 13 days; for plant injury at 15.625 g/ha: 15.625 g ai/ha; for plant injury at 15.625 g/ha / plant injury at 250 g/ha: read-out: Corn damage rating (100=total damage to plant; 0=no damage to plant); for plant injury at 62.5 g/ha: 62.5 g ai/ha, 100=total damage to plant, 0=no damage to plant, read-out: Corn damage rating; for plant injury at 250 g/ha: 250 g ai/ha
How it was run: (§1)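 One day after sowing, pots are treated with a spray of test compound formulated in acetone/water 50:50 plus 0.5% Tween 20, giving 15.625, 62.5 or 250 g/ha. Evaluation on a 0–100 damage scale follows 13 days of glasshouse growth.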

[2] = tested on: velvetleaf (Abutilon theophrasti); test: Test G Pre-Emergence Protocol; conditions: Abutilon theophrasti, pre-emergence, 312 h, evaluated after 13 days; for pest or weed control at 15.625 g/ha: 15.625 g ai/ha; for pest or weed control at 15.625 g/ha / pest or weed control at 250 g/ha: read-out: Velvetleaf damage rating (100=total damage to plant; 0=no damage to plant); for pest or weed control at 62.5 g/ha: 62.5 g ai/ha, 100=total damage to plant, 0=no damage to plant, read-out: Velvetleaf damage rating; for pest or weed control at 250 g/ha: 250 g ai/ha
How it was run: as §1

[3] = tested on: ivy-leaved morning glory (Ipomoea hederacea); test: Test G Pre-Emergence Protocol; conditions: Ipomoea, pre-emergence, 312 h, evaluated after 13 days; for pest or weed control at 15.625 g/ha: 15.625 g ai/ha; for pest or weed control at 15.625 g/ha / pest or weed control at 250 g/ha: read-out: Morningglory, Ivy-leaved damage rating (100=total damage to plant; 0=no damage to plant); for pest or weed control at 62.5 g/ha: 62.5 g ai/ha, 100=total damage to plant, 0=no damage to plant, read-out: Morningglory, Ivy-leaved damage rating; for pest or weed control at 250 g/ha: 250 g ai/ha
How it was run: as §1

[4] = tested on: giant foxtail (Setaria faberi); test: Test G Pre-Emergence Protocol; conditions: Setaria faberi, pre-emergence, 312 h, evaluated after 13 days; for pest or weed control at 15.625 g/ha: 15.625 g ai/ha; for pest or weed control at 15.625 g/ha / pest or weed control at 250 g/ha: read-out: Foxtail, Giant damage rating (100=total damage to plant; 0=no damage to plant); for pest or weed control at 62.5 g/ha: 62.5 g ai/ha, 100=total damage to plant, 0=no damage to plant, read-out: Foxtail, Giant damage rating; for pest or weed control at 250 g/ha: 250 g ai/ha
How it was run: as §1

[5] = tested on: barnyardgrass (Echinochloa crus-galli); test: Test G Pre-Emergence Protocol; conditions: Echinochloa crus-galli, pre-emergence, 312 h, evaluated after 13 days; for pest or weed control at 15.625 g/ha: 15.625 g ai/ha; for pest or weed control at 15.625 g/ha / pest or weed control at 250 g/ha: read-out: Barnyardgrass damage rating (100=total damage to plant; 0=no damage to plant); for pest or weed control at 62.5 g/ha: 62.5 g ai/ha, 100=total damage to plant, 0=no damage to plant, read-out: Barnyardgrass damage rating; for pest or weed control at 250 g/ha: 250 g ai/ha
How it was run: as §1

[6] = tested on: redroot pigweed (Amaranthus retroflexus); test: Test G Pre-Emergence Protocol; conditions: Amaranthus retroflexus, pre-emergence, 312 h, evaluated after 13 days; for pest or weed control at 15.625 g/ha: 15.625 g ai/ha; for pest or weed control at 15.625 g/ha / pest or weed control at 250 g/ha: read-out: Pigweed, Redroot damage rating (100=total damage to plant; 0=no damage to plant); for pest or weed control at 62.5 g/ha: 62.5 g ai/ha, 100=total damage to plant, 0=no damage to plant, read-out: Pigweed, Redroot damage rating; for pest or weed control at 250 g/ha: 250 g ai/ha
How it was run: as §1

corn (Zea mays) [7] = test: Test G Post-Emergence Protocol; conditions: Zea mays, post-emergence, 312 h, read-out: Corn damage rating; for plant injury at 15.625 g/ha: 15.625 g ai/ha, evaluated after 13 days (100=total damage to plant; 0=no damage to plant); for plant injury at 62.5 g/ha: 62.5 g ai/ha; for plant injury at 62.5 g/ha / plant injury at 250 g/ha: evaluated after 13 days, 100=total damage to plant, 0=no damage to plant; for plant injury at 250 g/ha: 250 g ai/ha
How it was run: (§2)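 Post-emergence herbicidal damage, scored visually 0–100 at 13 days. Application at 15.625, 62.5 or 250 g/ha onto 8-day-old plants grown under glasshouse control.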

[8] = tested on: velvetleaf (Abutilon theophrasti); test: Test G Post-Emergence Protocol; conditions: Abutilon theophrasti, post-emergence, 312 h, read-out: Velvetleaf damage rating; for pest or weed control at 15.625 g/ha: 15.625 g ai/ha, evaluated after 13 days (100=total damage to plant; 0=no damage to plant); for pest or weed control at 62.5 g/ha: 62.5 g ai/ha; for pest or weed control at 62.5 g/ha / pest or weed control at 250 g/ha: evaluated after 13 days, 100=total damage to plant, 0=no damage to plant; for pest or weed control at 250 g/ha: 250 g ai/ha
How it was run: as §2

[9] = tested on: ivy-leaved morning glory (Ipomoea hederacea); test: Test G Post-Emergence Protocol; conditions: Ipomoea, post-emergence, 312 h, read-out: Morningglory, Ivy-leaved damage rating; for pest or weed control at 15.625 g/ha: 15.625 g ai/ha, evaluated after 13 days (100=total damage to plant; 0=no damage to plant); for pest or weed control at 62.5 g/ha: 62.5 g ai/ha; for pest or weed control at 62.5 g/ha / pest or weed control at 250 g/ha: evaluated after 13 days, 100=total damage to plant, 0=no damage to plant; for pest or weed control at 250 g/ha: 250 g ai/ha
How it was run: as §2

[10] = tested on: giant foxtail (Setaria faberi); test: Test G Post-Emergence Protocol; conditions: Setaria faberi, post-emergence, 312 h, read-out: Foxtail, Giant damage rating; for pest or weed control at 15.625 g/ha: 15.625 g ai/ha, evaluated after 13 days (100=total damage to plant; 0=no damage to plant); for pest or weed control at 62.5 g/ha: 62.5 g ai/ha; for pest or weed control at 62.5 g/ha / pest or weed control at 250 g/ha: evaluated after 13 days, 100=total damage to plant, 0=no damage to plant; for pest or weed control at 250 g/ha: 250 g ai/ha
How it was run: as §2

[11] = tested on: barnyardgrass (Echinochloa crus-galli); test: Test G Post-Emergence Protocol; conditions: Echinochloa crus-galli, post-emergence, 312 h, read-out: Barnyardgrass damage rating; for pest or weed control at 15.625 g/ha: 15.625 g ai/ha, evaluated after 13 days (100=total damage to plant; 0=no damage to plant); for pest or weed control at 62.5 g/ha: 62.5 g ai/ha; for pest or weed control at 62.5 g/ha / pest or weed control at 250 g/ha: evaluated after 13 days, 100=total damage to plant, 0=no damage to plant; for pest or weed control at 250 g/ha: 250 g ai/ha
How it was run: as §2

[12] = tested on: redroot pigweed (Amaranthus retroflexus); test: Test G Post-Emergence Protocol; conditions: Amaranthus retroflexus, post-emergence, 312 h, read-out: Pigweed, Redroot damage rating; for pest or weed control at 15.625 g/ha: 15.625 g ai/ha, evaluated after 13 days (100=total damage to plant; 0=no damage to plant); for pest or weed control at 62.5 g/ha: 62.5 g ai/ha; for pest or weed control at 62.5 g/ha / pest or weed control at 250 g/ha: evaluated after 13 days, 100=total damage to plant, 0=no damage to plant; for pest or weed control at 250 g/ha: 250 g ai/ha
How it was run: as §2

SMILES | plant injury at 15.625 g/ha (corn (Zea mays) [1]) [%] | plant injury at 62.5 g/ha (corn (Zea mays) [1]) [%] | plant injury at 250 g/ha (corn (Zea mays) [1]) [%] | pest or weed control at 15.625 g/ha [2] [%] | pest or weed control at 62.5 g/ha [2] [%] | pest or weed control at 250 g/ha [2] [%] | pest or weed control at 15.625 g/ha [3] [%] | pest or weed control at 62.5 g/ha [3] [%] | pest or weed control at 250 g/ha [3] [%] | pest or weed control at 15.625 g/ha [4] [%] | pest or weed control at 62.5 g/ha [4] [%] | pest or weed control at 250 g/ha [4] [%] | pest or weed control at 15.625 g/ha [5] [%] | pest or weed control at 62.5 g/ha [5] [%] | pest or weed control at 250 g/ha [5] [%] | pest or weed control at 15.625 g/ha [6] [%] | pest or weed control at 62.5 g/ha [6] [%] | pest or weed control at 250 g/ha [6] [%] | plant injury at 15.625 g/ha (corn (Zea mays) [7]) [%] | plant injury at 62.5 g/ha (corn (Zea mays) [7]) [%] | also measured
CN1C[C@@H](c2ccc(C(F)(F)F)cc2)[C@H](C(=O)Nc2cscn2)C1=O (racemic) [Compound 1659] | 0 | 0 | 0 | 0 | 0 | 0 | 0 | 0 | 0 | 0 | 0 | 0 | 0 | 0 | 0 | 0 | 0 | 0 | 0 | 0 | plant injury at 250 g/ha (corn (Zea mays) [7]): 10%; pest or weed control at 15.625 g/ha [8]: 0%; pest or weed control at 62.5 g/ha [8]: 0%; pest or weed control at 250 g/ha [8]: 0%; pest or weed control at 15.625 g/ha [9]: 0%; pest or weed control at 62.5 g/ha [9]: 0%; pest or weed control at 250 g/ha [9]: 0%; pest or weed control at 15.625 g/ha [10]: 0%; pest or weed control at 62.5 g/ha [10]: 0%; pest or weed control at 250 g/ha [10]: 40%; pest or weed control at 15.625 g/ha [11]: 0%; pest or weed control at 62.5 g/ha [11]: 0%; pest or weed control at 250 g/ha [11]: 20%; pest or weed control at 15.625 g/ha [12]: 0%; pest or weed control at 62.5 g/ha [12]: 0%; pest or weed control at 250 g/ha [12]: 20%
CCOc1cc(C2CN(C)C(=O)C2C(=O)Nc2cccc(F)c2F)cc(C(F)(F)F)c1 (stereo not drawn) [Compound 1696] | 0 | 40 | 50 | 10 | 0 | 0 | 10 | 10 | 20 | 60 | 80 | 90 | 10 | 70 | 80 | 20 | 0 | 20 | 50 | 70 | plant injury at 250 g/ha (corn (Zea mays) [7]): 70%; pest or weed control at 15.625 g/ha [8]: 0%; pest or weed control at 62.5 g/ha [8]: 0%; pest or weed control at 250 g/ha [8]: 10%; pest or weed control at 15.625 g/ha [9]: 20%; pest or weed control at 62.5 g/ha [9]: 60%; pest or weed control at 250 g/ha [9]: 60%; pest or weed control at 15.625 g/ha [10]: 70%; pest or weed control at 62.5 g/ha [10]: 80%; pest or weed control at 250 g/ha [10]: 80%; pest or weed control at 15.625 g/ha [11]: 40%; pest or weed control at 62.5 g/ha [11]: 70%; pest or weed control at 250 g/ha [11]: 80%; pest or weed control at 15.625 g/ha [12]: 70%; pest or weed control at 62.5 g/ha [12]: 50%; pest or weed control at 250 g/ha [12]: 60%
CN1C[C@H](c2ccc(C(F)(F)F)cc2)[C@@H](C(=O)Nc2cccc3ccsc23)C1=O (racemic) [Compound 1757] | 0 | 0 | 0 | 0 | 0 | 0 | 0 | 0 | 0 | 0 | 30 | 70 | 0 | 10 | 10 | 0 | 0 | 0 | 0 | 0 | plant injury at 250 g/ha (corn (Zea mays) [7]): 0%; pest or weed control at 15.625 g/ha [8]: 0%; pest or weed control at 62.5 g/ha [8]: 0%; pest or weed control at 250 g/ha [8]: 0%; pest or weed control at 15.625 g/ha [9]: 0%; pest or weed control at 62.5 g/ha [9]: 0%; pest or weed control at 250 g/ha [9]: 10%; pest or weed control at 15.625 g/ha [10]: 0%; pest or weed control at 62.5 g/ha [10]: 20%; pest or weed control at 250 g/ha [10]: 60%; pest or weed control at 15.625 g/ha [11]: 0%; pest or weed control at 62.5 g/ha [11]: 10%; pest or weed control at 250 g/ha [11]: 30%; pest or weed control at 15.625 g/ha [12]: 0%; pest or weed control at 62.5 g/ha [12]: 0%; pest or weed control at 250 g/ha [12]: 0%
